Results as given in patent US9198433B2, “Substituted benzene fungicides” (E I DU PONT DE NEMOURS AND COMPANY, priority 2007, dated 2015).
Marks after values point to notes of the source that are not given here.

What was measured:
Type in all cases: in vivo
[1] = system: Puccinia recondita f. sp. tritici; assay: Test B: wheat leaf rust, preventive spray on wheat seedlings, disease rating
Excerpt: (§1) The test compounds were first dissolved in acetone in an amount equal to 3% of the final volume and then suspended at the desired concentration (in ppm) in acetone and purified water (50/50 mix) containing 250 ppm of the surfactant Trem® 014 (polyhydric alcohol esters). The resulting test suspensions were then used in Tests A-L. Spraying a 200 ppm test suspension to the point of run-off on the test plants was the equivalent of an application rate of 500 g/ha. The test suspension was sprayed to the point of run-off on wheat seedlings. […] A dash (-) indicates no test results. All results are for 200 ppm except where followed by an “*”, which indicates 40 ppm or “**”, which indicates 50 ppm.

Botrytis cinerea = assay: Test F: tomato Botrytis, preventive spray on tomato seedlings, disease rating
Excerpt: (§2) The test compounds were first dissolved in acetone in an amount equal to 3% of the final volume and then suspended at the desired concentration (in ppm) in acetone and purified water (50/50 mix) containing 250 ppm of the surfactant Trem® 014 (polyhydric alcohol esters). The resulting test suspensions were then used in Tests A-L. Spraying a 200 ppm test suspension to the point of run-off on the test plants was the equivalent of an application rate of 500 g/ha. The test suspension was sprayed to the point of run-off on tomato seedlings. […] A dash (-) indicates no test results. All results are for 200 ppm except where followed by an “*”, which indicates 40 ppm or “**”, which indicates 50 ppm.

[2] = system: Erysiphe graminis f. sp. tritici; assay: Test A: wheat powdery mildew, preventive spray on wheat seedlings, disease rating
Excerpt: as §1

Alternaria solani = assay: Test H: tomato early blight, preventive spray on tomato seedlings, disease rating
Excerpt: as §2

Septoria nodorum = assay: Test C: wheat glume blotch, preventive spray on wheat seedlings, disease rating
Excerpt: as §1

Septoria tritici = assay: Test D: wheat leaf blotch, preventive spray on wheat seedlings, disease rating
Excerpt: The test compounds were first dissolved in acetone in an amount equal to 3% of the final volume and then suspended at the desired concentration (in ppm) in acetone and purified water (50/50 mix) containing 250 ppm of the surfactant Trem® 014 (polyhydric alcohol esters). The resulting test suspensions were then used in Tests A-L. Spraying a 200 ppm test suspension to the point of run-off on the test plants was the equivalent of an application rate of 500 g/ha. The test suspension was sprayed to the point of run-off on wheat seedlings. The following day the seedlings were inoculated with a spore suspension of Septoria tritici (the causal agent of wheat leaf blotch) and incubated in a saturated atmosphere at 24° C. for 48 h, and then moved to a growth chamber at 20° C. for 19 days, after which time disease ratings were made. […] A dash (-) indicates no test results. All results are for 200 ppm except where followed by an “*”, which indicates 40 ppm or “**”, which indicates 50 ppm.

Row | Structure (SMILES) | Percentage Disease Control, Test B ([1]; 40 ppm (*)) | Percentage Disease Control, Test F (Botrytis cinerea; 40 ppm (*)) | Percentage Disease Control, Test A ([2]; 40 ppm (*)) | Percentage Disease Control, Test H (Alternaria solani; 40 ppm (*)) | Percentage Disease Control, Test C (Septoria nodorum; 40 ppm (*)) | Percentage Disease Control, Test D (Septoria tritici; 40 ppm (*)) | Percentage Disease Control, Test F (Botrytis cinerea; 200 ppm) [%] | Percentage Disease Control, Test H (Alternaria solani; 200 ppm) [%] | Percentage Disease Control, Test B ([1]; 200 ppm) [%] | Percentage Disease Control, Test A ([2]; 200 ppm) [%] | Percentage Disease Control, Test C (Septoria nodorum; 200 ppm) [%] | Percentage Disease Control, Test D (Septoria tritici; 200 ppm) [%]
1 | COC(=O)NCc1cc(-c2ccn(Cc3cccc(OC(F)(F)F)c3)n2)ccc1Cl [Cmpd 65] | 99* % | 0* % | 99* % | 8* % | 99* % | 100* % |  |  |  |  |  | 
2 | COC(=O)NCc1cc(-c2ccn(Cc3ccc(OC(F)(F)F)cc3)n2)ccc1Cl [Cmpd 66] | 100* % | 0* % | 99* % | 96* % | 100* % | 100* % |  |  |  |  |  | 
3 | COC(=O)NCc1cc(-c2ccn(Cc3ccc(Cl)cc3)n2)ccc1Cl [Cmpd 67] | 99* % | 0* % | 96* % | 96* % | 99* % | 100* % |  |  |  |  |  | 
4 | COC(=O)NCc1cc(-c2ccn(-c3cccc(OC(F)(F)F)c3)n2)ccc1Cl [Cmpd 68] | 100* % |  | 97* % | 86* % | 99* % | 100* % | 0 |  |  |  |  | 
5 | COC(=O)NCc1cc(-c2ccn(-c3cccc(C(F)(F)F)n3)n2)ccc1Cl [Cmpd 69] | 92* % |  | 97* % |  | 98* % | 98* % | 0 | 32 |  |  |  | 
6 | COC(=O)NCc1cc(-c2ccn(Cc3ccc(C)cc3)n2)ccc1Cl [Cmpd 72] | 99* % | 97* % | 99* % | 94* % | 100* % | 100* % |  |  |  |  |  | 
7 | COC(=O)NCc1cc(-c2ccn(Cc3cccc([N+](=O)[O-])c3)n2)ccc1Cl [Cmpd 73] | 98* % | 95* % | 74* % | 14* % | 96* % | 98* % |  |  |  |  |  | 
8 | COC(=O)NCc1cc(-c2ccn(-c3ccc(Cl)cc3)n2)ccc1Cl [Cmpd 74] | 100* % | 51* % | 100* % | 99* % | 100* % | 100* % |  |  |  |  |  | 
9 | COC(=O)NCc1cc(-c2ccn(Cc3cccc(C#N)c3)n2)ccc1Cl [Cmpd 75] | 93* % | 20* % | 72* % | 61* % | 40* % | 91* % |  |  |  |  |  | 
10 | COC(=O)NCc1cc(-c2ccn(Cc3ccccc3OC(F)(F)F)n2)ccc1Cl [Cmpd 76] | 100* % | 0* % | 99* % | 0* % | 99* % | 100* % |  |  |  |  |  | 
11 | COC(=O)NCc1cc(-c2ccn(-c3cc(C(F)(F)F)cc(C(F)(F)F)c3)n2)ccc1Cl [Cmpd 78] | 85* % | 33* % | 100* % | 0* % | 0* % | 90* % |  |  |  |  |  | 
12 | COC(=O)NCc1cc(-c2ccn(-c3cccc(Cl)c3)n2)ccc1Cl [Cmpd 80] | 98* % | 60* % | 98* % | 29* % | 100* % | 100* % |  |  |  |  |  | 
13 | COC(=O)NCc1cc(-c2ccn(-c3cccc(C)c3)n2)ccc1Cl [Cmpd 81] | 99* % | 81* % | 85* % | 97* % | 100* % | 99* % |  |  |  |  |  | 
14 | COC(=O)C(=O)c1cc(-c2ccn(-c3cccc(C(F)(F)F)c3)n2)ccc1C [Cmpd 83] |  |  |  |  |  |  | 0 | 0 | 0 | 19 | 0 | 89
15 | CON=C(C(=O)OC)c1cc(-c2ccn(-c3cccc(C(F)(F)F)c3)n2)ccc1C [Cmpd 84] |  |  | 98* % |  |  | 99* % | 67 | 54 | 80 |  | 92 | 
16 | CNC(=O)C(=NOC)c1cc(-c2ccn(-c3cccc(C(F)(F)F)c3)n2)ccc1C [Cmpd 85] | 97* % |  | 100* % |  | 99* % | 99* % | 0 | 86 |  |  |  | 
17 | COC(=O)NCc1cc(-c2ccn(-c3cc(C(F)(F)F)ccn3)n2)ccc1Cl [Cmpd 86] | 100* % | 0* % | 99* % | 9* % | 100* % | 98* % |  |  |  |  |  | 
